Data from ChEMBL document CHEMBL5723583, “Data for DCP probe BAY-9835” (2024).
Calls of active or inactive are those of the source. The calls are words filed in the database; no cut-off is given here.

What was measured:
[1] = biological target: Sodium/potassium-transporting ATPase (Sus scrofa) (UniProt P05027+P05024+D2WKD8+D2WKD7+F1ST41); assay: Inhibition of ATPase, Na+/K+, Heart, Pig at 10.0 µM in the Eurofins-Panlabs selectivity screen; format: protein-complex assay; conditions: Compound concentration 10.0 uM
[2] = biological target: Histamine H2 receptor (Homo sapiens) (UniProt P25021); assay: Inhibition of Histamine H2 at 10.0 µM in the Eurofins-Panlabs selectivity screen; conditions: Compound concentration 10.0 uM
Cathepsin S = Cathepsin S (Homo sapiens, UniProt P25774); assay: IC50 of Cathepsin S at 1.0 µM in the Bayer in-house protease panel
[3] = biological target: Angiotensin-converting enzyme (Homo sapiens) (UniProt P12821); assay: Inhibition of Peptidase, Angiotensin Converting Enzyme at 10.0 µM in the Eurofins-Panlabs selectivity screen; conditions: Oryctolagus cuniculus; Compound concentration 10.0 uM
[4] = biological target: Disintegrin and metalloproteinase domain-containing protein 17 (Homo sapiens, UniProt P78536); assay: IC50 of hADAM17 at 1.0 µM in the Bayer in-house protease panel
[5] = biological target: Kappa-type opioid receptor (Homo sapiens) (UniProt P41145); assay: Inhibition of Opiate kappa (OP2, KOP) at 10.0 µM in the Eurofins-Panlabs selectivity screen; conditions: Compound concentration 10.0 uM
[6] = biological target: Endothelin-1 receptor (Homo sapiens) (UniProt P25101); assay: Inhibition of Endothelin ETA at 10.0 µM in the Eurofins-Panlabs selectivity screen; conditions: Compound concentration 10.0 uM
[7] = biological target: Adenosine receptor A2a (Homo sapiens) (UniProt P29274); assay: Inhibition of Adenosine A2A at 10.0 µM in the Eurofins-Panlabs selectivity screen; conditions: Compound concentration 10.0 uM
[8] = biological target: Nitric oxide synthase, inducible (Homo sapiens) (UniProt P35228); assay: Inhibition of Nitric Oxide Synthetase, Inducible (iNOS) at 10.0 µM in the Eurofins-Panlabs selectivity screen; conditions: Mus musculus; Compound concentration 10.0 uM
[9] = biological target: D(1A) dopamine receptor (Homo sapiens) (UniProt P21728); assay: Inhibition of Dopamine D1 at 10.0 µM in the Eurofins-Panlabs selectivity screen; conditions: Compound concentration 10.0 uM
[10] = biological target: A disintegrin and metalloproteinase with thrombospondin motifs 7 (Homo sapiens, UniProt Q9UKP4); assay: Biochemical enzymatic FRET assay (hADAMTS7) ( FRET substrate, HiLyteFluor-488 DELSSMVLELRGLRT-K(QXL520)-E-NH2 (custom synthesis by Anaspec) was used.)
[11] = biological target: Calpain-1 catalytic subunit (Homo sapiens, UniProt P07384); assay: IC50 of Calpain 1 at 1.0 µM in the Bayer in-house protease panel
[12] = biological target: Beta-1 adrenergic receptor (Homo sapiens) (UniProt P08588); assay: Inhibition of Adrenergic beta1 at 10.0 µM in the Eurofins-Panlabs selectivity screen; conditions: Compound concentration 10.0 uM
[13] = biological target: Histamine H1 receptor (Homo sapiens) (UniProt P35367); assay: Inhibition of Histamine H1 at 10.0 µM in the Eurofins-Panlabs selectivity screen; conditions: Compound concentration 10.0 uM
[14] = biological target: Acetylcholinesterase (Homo sapiens) (UniProt P22303); assay: Inhibition of Cholinesterase, Acetyl, ACES at 10.0 µM in the Eurofins-Panlabs selectivity screen; conditions: Compound concentration 10.0 uM
[15] = biological target: Adenosine receptor A3 (Homo sapiens) (UniProt P0DMS8); assay: Inhibition of Adenosine A3 at 10.0 µM in the Eurofins-Panlabs selectivity screen; conditions: Compound concentration 10.0 uM
Cathepsin B = Cathepsin B (Homo sapiens, UniProt P07858); assay: IC50 of Cathepsin B at 1.0 µM in the Bayer in-house protease panel
[16] = biological target: D(2) dopamine receptor (Homo sapiens) (UniProt P14416); assay: Inhibition of Dopamine D2L at 10.0 µM in the Eurofins-Panlabs selectivity screen; conditions: Compound concentration 10.0 uM
[17] = biological target: Estrogen receptor (Homo sapiens) (UniProt P03372); assay: Inhibition of Estrogen ERalpha at 10.0 µM in the Eurofins-Panlabs selectivity screen; conditions: Compound concentration 10.0 uM
[18] = biological target: Mu-type opioid receptor (Homo sapiens) (UniProt P35372); assay: Inhibition of Opiate mu (OP3, MOP) at 10.0 µM in the Eurofins-Panlabs selectivity screen; conditions: Compound concentration 10.0 uM
[19] = biological target: Muscarinic acetylcholine receptor M3 (Homo sapiens) (UniProt P20309); assay: Inhibition of Muscarinic M3 at 10.0 µM in the Eurofins-Panlabs selectivity screen; conditions: Compound concentration 10.0 uM
[20] = biological target: Histamine H3 receptor (Homo sapiens) (UniProt Q9Y5N1); assay: Inhibition of Histamine H3 at 10.0 µM in the Eurofins-Panlabs selectivity screen; conditions: Compound concentration 10.0 uM
[21] = biological target: Vasopressin V1a receptor (Homo sapiens) (UniProt P37288); assay: Inhibition of Vasopressin V1A at 10.0 µM in the Eurofins-Panlabs selectivity screen; conditions: Compound concentration 10.0 uM
[22] = biological target: Muscarinic acetylcholine receptor M2 (Homo sapiens) (UniProt P08172); assay: Inhibition of Muscarinic M2 at 10.0 µM in the Eurofins-Panlabs selectivity screen; conditions: Compound concentration 10.0 uM
[23] = biological target: Equilibrative nucleoside transporter 1/2/3/4 (Homo sapiens) (UniProt Q99808+Q7RTT9+Q14542+Q9BZD2); assay: Inhibition of Transporter, Adenosine at 10.0 µM in the Eurofins-Panlabs selectivity screen; format: protein assay; conditions: Compound concentration 10.0 uM
[24] = biological target: D(2) dopamine receptor (Homo sapiens) (UniProt P14416); assay: Inhibition of Dopamine D2S at 10.0 µM in the Eurofins-Panlabs selectivity screen; conditions: Compound concentration 10.0 uM
[25] = biological target: Glutamate NMDA receptor (Rattus norvegicus) (UniProt P35439+Q00959+Q00960+Q00961+Q62645+Q8VHN2+Q9R1M7); assay: Inhibition of Glutamate, NMDA, Glycine at 10.0 µM in the Eurofins-Panlabs selectivity screen; format: protein-complex assay; conditions: Compound concentration 10.0 uM
[26] = biological target: cGMP-specific 3',5'-cyclic phosphodiesterase (Homo sapiens) (UniProt O76074); assay: Inhibition of Phosphodiesterase PDE5 at 10.0 µM in the Eurofins-Panlabs selectivity screen; conditions: Compound concentration 10.0 uM
[27] = biological target: Adenosine receptor A1 (Homo sapiens) (UniProt P30542); assay: Inhibition of Adenosine A1 at 10.0 µM in the Eurofins-Panlabs selectivity screen; conditions: Compound concentration 10.0 uM
[28] = biological target: Sodium-dependent noradrenaline transporter (Homo sapiens) (UniProt P23975); assay: Inhibition of Transporter, Norepinephrine (NET) at 10.0 µM in the Eurofins-Panlabs selectivity screen; conditions: Compound concentration 10.0 uM
[29] = biological target: Polyunsaturated fatty acid lipoxygenase ALOX15 (Homo sapiens) (UniProt P16050); assay: Inhibition of Lipoxygenase 15-LO at 10.0 µM in the Eurofins-Panlabs selectivity screen; conditions: Compound concentration 10.0 uM
[30] = biological target: Monoamine oxidase A (MAO-A) (Homo sapiens, UniProt P21397); assay: Inhibition of Monoamine Oxidase MAO-A at 10.0 µM in the Eurofins-Panlabs selectivity screen; conditions: compound concentration 10 uM
[31] = biological target: Growth hormone secretagogue receptor type 1 (Homo sapiens) (UniProt Q92847); assay: Inhibition of Growth Hormone Secretagogue (GHS, Ghrelin) at 10.0 µM in the Eurofins-Panlabs selectivity screen; conditions: Compound concentration 10.0 uM
[32] = biological target: Type-1 angiotensin II receptor (Homo sapiens) (UniProt P30556); assay: Inhibition of Angiotensin AT1 at 10.0 µM in the Eurofins-Panlabs selectivity screen; conditions: Compound concentration 10.0 uM
[33] = biological target: 3-hydroxy-3-methylglutaryl-coenzyme A reductase (Homo sapiens) (UniProt P04035); assay: Inhibition of HMG-CoA Reductase at 10.0 µM in the Eurofins-Panlabs selectivity screen; conditions: Compound concentration 10.0 uM
Sequence of 3-hydroxy-3-methylglutaryl-coenzyme A reductase (Homo sapiens) (P04035 whole entry): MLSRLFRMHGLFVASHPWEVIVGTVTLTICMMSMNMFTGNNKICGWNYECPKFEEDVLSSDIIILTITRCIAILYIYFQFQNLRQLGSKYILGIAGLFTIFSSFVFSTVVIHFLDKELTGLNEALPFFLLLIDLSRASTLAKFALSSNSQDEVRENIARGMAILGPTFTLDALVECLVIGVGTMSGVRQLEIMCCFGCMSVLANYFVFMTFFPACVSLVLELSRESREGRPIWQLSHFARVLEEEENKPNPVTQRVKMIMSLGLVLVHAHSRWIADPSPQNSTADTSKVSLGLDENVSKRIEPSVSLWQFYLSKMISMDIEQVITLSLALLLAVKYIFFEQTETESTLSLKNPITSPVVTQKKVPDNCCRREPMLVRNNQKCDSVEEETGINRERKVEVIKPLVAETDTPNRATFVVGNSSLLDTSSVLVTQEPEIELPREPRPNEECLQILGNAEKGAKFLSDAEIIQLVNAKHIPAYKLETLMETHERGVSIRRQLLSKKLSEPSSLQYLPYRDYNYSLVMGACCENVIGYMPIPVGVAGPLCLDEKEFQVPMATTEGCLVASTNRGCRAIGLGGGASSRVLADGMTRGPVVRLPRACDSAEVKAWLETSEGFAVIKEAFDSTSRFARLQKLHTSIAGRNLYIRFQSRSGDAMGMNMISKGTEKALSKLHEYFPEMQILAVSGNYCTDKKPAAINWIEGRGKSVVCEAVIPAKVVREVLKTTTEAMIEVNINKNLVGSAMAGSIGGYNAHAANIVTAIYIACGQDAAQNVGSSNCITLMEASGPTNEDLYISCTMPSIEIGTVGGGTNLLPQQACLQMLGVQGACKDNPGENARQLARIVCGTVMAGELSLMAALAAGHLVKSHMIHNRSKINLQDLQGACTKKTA

Sequence of D(2) dopamine receptor (Homo sapiens) (P14416 whole entry): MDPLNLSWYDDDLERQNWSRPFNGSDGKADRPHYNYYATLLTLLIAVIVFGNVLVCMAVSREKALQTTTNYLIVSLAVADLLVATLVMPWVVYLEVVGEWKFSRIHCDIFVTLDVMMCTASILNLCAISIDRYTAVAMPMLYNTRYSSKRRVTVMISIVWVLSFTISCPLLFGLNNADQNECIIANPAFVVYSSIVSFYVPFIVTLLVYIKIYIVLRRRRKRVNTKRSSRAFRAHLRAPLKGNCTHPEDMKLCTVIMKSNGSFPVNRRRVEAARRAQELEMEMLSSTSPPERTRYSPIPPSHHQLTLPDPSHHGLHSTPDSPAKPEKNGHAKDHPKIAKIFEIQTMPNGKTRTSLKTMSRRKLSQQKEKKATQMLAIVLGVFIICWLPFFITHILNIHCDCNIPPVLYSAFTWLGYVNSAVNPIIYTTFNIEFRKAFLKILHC
Sequence of Monoamine oxidase A (MAO-A) (P21397 whole entry): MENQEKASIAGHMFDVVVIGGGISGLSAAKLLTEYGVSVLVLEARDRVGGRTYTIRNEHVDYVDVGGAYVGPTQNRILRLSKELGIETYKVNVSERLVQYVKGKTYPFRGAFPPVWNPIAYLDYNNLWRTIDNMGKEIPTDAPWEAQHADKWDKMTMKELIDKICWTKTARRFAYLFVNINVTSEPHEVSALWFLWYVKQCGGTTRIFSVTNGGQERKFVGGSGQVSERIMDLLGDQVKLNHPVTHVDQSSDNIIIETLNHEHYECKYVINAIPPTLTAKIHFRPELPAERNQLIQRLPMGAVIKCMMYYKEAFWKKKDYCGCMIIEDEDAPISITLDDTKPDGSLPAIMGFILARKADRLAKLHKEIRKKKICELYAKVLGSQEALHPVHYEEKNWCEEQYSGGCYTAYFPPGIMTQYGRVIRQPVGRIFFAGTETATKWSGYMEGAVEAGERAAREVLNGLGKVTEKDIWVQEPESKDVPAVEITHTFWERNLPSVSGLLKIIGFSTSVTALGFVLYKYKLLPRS
Sequence of Disintegrin and metalloproteinase domain-containing protein 17 (P78536 whole entry, the tested form may be a part): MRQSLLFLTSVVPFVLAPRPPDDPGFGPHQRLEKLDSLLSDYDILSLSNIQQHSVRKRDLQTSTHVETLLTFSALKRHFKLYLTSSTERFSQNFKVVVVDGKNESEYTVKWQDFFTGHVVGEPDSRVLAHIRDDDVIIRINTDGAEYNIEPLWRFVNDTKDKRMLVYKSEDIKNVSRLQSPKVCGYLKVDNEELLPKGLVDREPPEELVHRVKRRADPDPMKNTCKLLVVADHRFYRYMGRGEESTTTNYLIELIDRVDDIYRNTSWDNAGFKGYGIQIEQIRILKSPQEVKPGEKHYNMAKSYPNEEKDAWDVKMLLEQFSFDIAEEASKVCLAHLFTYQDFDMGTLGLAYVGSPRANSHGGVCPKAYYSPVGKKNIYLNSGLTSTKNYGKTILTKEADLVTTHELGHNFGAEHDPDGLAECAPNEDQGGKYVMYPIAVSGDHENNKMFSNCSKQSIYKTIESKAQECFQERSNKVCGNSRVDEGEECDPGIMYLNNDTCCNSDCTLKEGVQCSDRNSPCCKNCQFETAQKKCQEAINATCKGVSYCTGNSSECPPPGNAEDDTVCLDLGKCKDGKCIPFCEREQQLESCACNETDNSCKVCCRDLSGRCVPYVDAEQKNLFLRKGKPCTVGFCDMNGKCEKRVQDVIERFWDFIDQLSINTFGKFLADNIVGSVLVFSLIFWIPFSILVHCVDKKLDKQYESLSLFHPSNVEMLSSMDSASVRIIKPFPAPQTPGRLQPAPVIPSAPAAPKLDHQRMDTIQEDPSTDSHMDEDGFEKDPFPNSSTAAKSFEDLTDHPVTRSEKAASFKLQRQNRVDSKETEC
Sequence of Sodium-dependent noradrenaline transporter (Homo sapiens) (P23975 whole entry): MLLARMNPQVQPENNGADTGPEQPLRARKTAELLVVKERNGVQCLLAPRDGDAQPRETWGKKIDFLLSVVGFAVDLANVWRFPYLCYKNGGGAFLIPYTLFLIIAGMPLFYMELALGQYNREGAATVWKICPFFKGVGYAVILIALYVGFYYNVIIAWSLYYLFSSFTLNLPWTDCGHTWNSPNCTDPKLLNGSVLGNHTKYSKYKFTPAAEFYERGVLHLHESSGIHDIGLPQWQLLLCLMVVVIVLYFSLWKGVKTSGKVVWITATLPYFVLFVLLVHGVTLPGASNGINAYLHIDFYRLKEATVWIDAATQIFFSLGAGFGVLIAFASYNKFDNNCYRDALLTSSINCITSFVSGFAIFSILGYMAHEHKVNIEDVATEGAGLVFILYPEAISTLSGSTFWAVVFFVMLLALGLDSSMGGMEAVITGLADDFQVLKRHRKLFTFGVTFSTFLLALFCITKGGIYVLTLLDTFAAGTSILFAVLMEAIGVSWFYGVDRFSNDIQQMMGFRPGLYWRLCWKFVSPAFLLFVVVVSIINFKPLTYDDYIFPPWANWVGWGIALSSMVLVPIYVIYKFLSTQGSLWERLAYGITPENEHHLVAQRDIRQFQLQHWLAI
Sequence of Adenosine receptor A2a (Homo sapiens) (P29274 whole entry): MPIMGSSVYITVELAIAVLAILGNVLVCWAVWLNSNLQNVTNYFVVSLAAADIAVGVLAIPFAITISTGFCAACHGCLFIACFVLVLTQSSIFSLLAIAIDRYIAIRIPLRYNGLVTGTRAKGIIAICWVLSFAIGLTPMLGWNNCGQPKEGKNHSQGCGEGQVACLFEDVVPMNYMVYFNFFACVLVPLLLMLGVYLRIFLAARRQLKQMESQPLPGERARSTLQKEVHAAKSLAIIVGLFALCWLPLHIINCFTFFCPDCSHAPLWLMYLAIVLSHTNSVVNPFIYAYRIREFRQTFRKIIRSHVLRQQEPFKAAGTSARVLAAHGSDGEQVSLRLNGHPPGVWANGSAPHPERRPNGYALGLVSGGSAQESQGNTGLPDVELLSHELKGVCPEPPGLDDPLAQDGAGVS
Sequence of Estrogen receptor (Homo sapiens) (P03372 whole entry): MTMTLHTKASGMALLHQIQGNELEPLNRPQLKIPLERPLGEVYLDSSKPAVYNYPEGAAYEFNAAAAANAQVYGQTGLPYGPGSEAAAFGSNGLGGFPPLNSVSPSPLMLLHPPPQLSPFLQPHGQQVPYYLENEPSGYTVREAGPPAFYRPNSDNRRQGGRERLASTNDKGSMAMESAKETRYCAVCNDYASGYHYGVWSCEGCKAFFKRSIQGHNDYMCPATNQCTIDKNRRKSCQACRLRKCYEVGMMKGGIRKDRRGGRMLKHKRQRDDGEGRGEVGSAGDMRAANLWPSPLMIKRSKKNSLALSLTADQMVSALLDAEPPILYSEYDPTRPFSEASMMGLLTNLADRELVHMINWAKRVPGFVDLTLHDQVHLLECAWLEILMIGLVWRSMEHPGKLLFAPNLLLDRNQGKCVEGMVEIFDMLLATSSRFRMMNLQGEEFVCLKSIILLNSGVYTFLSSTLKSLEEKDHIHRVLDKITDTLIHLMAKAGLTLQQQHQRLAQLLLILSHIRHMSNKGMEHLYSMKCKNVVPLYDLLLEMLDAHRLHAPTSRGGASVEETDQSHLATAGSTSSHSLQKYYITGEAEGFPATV
Sequence of Calpain-1 catalytic subunit (P07384 whole entry): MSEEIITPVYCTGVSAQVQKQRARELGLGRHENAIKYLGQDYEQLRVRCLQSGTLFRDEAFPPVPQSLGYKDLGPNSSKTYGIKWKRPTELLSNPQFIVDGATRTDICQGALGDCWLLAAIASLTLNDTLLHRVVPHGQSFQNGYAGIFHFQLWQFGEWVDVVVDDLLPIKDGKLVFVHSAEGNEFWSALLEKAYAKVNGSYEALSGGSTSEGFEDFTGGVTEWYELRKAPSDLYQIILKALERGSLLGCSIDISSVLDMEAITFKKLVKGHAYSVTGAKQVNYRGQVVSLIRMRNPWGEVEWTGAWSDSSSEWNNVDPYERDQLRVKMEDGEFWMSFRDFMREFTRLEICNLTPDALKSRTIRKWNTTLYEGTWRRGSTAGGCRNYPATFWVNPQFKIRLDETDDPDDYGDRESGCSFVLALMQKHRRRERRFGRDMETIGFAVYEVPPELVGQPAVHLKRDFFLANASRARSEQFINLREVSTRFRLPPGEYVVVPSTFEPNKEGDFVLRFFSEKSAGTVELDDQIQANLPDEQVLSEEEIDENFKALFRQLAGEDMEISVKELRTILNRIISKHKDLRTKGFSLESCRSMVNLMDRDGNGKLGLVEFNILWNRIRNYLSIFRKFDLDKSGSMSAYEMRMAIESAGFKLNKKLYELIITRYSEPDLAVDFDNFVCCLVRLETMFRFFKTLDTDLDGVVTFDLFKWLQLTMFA

With `Cn1nccc1[C@]1(CNC(=O)c2ccc(F)c(F)c2-c2ccc(C(F)(F)F)cc2)NC(=O)NC1=O` the inhibition [1] was -5%, the inhibition [2] was 16% and the IC50 (Cathepsin S) was over 100 µM. For the same compound, the inhibition [3] was 3%, the IC50 [4] was 5.77 µM and the inhibition [5] was -4%. For the same compound, the inhibition [6] was 2%, the inhibition [7] was 3% and the inhibition [8] was 0%. The inhibition [9] was -1%, the IC50 [10] was 0.006 µM (active) and the IC50 [11] was over 100 µM. It also gave an inhibition [12] of -8%, an inhibition [13] of -1% and an inhibition [14] of 3%. It also gave an inhibition [15] of 0%, an IC50 (Cathepsin B) of over 100 µM and an inhibition [16] of 2%. The inhibition [17] was 13%, the inhibition [18] was 2% and the inhibition [19] was 9%. The inhibition [20] was 6%, the inhibition [21] was 7% and the inhibition [22] was 1%. It also gave an inhibition [23] of 11%, an inhibition [24] of 0% and an inhibition [25] of -4%. For the same compound, the inhibition [26] was -5%, the inhibition [27] was -4% and the inhibition [28] was 6%. It also gave an inhibition [29] of -6%, an inhibition at 10 µM [30] of 0% and an inhibition [31] of 6%. The inhibition [32] was -1% and the inhibition [33] was -5%.
